The results in this text go back to patent US9556196B2, “Anti-platelet compound addition salt” (GUANGZHOU HEERSHI PHARMA DEVELOPMENT CO., LTD, priority 2011, dated 2017).

Counter-ions that a name gives are not always drawn. Like-named read-outs stand apart in the source and are kept apart here.

The nature of data set [1]: Solubility test for several solid acid addition salts. It is filed as physicochemical. How it is done: The Solubility Test for Several Solid Acid Addition Salt
In general, it is necessary for a drug with good bioavailability to have a good solubility. Typically, the desired solubility of a drug in a pH range of 1-7.5 is at least 1 mg/ml.

Data set [2] has as its system wistar rat. Briefly: Arteriovenous shunt thrombosis in polyethylene tube method (weight of thrombosis). It is filed as in vivo. The note with it: oral gavage, consecutive 3 days, 2 hours after the last administration, shunt lasted 15 min, wet or dry weight not stated. The method, then: II. Investigation on the Weight of Thrombosis
(§1) Animal: wistar rat, 220-260 g in weight, male, 6-8 each group.
Grouping: the same as above.
Method: Arteriovenous shunt thrombosis in polyethylene tube method.
Index Observed The drug was administrated for consecutive 3 days. 2 hours after the last administration, arteriovenous anastomosis thrombosis was lasted for 15 min, the wet weight and dry weight of the thrombosis formed was investigated.

Data set [3] has as its system wistar rat. Put plainly: Current injury carotid artery thrombosis method (time of thrombosis formation). It is filed as in vivo. The note with it: oral gavage, consecutive 3 days, 2 hours after the last administration. How it is done:
To compare the pharmacologic effect between the screened salts and the free compound of formula I, the following arterial thrombosis test was carried out with clopidogrel as the positive drug.
I. Investigation on the Time of Thrombosis Formation,
as §1
Grouping: control group, positive drug group (clopidogrel, 10 mg/kg), free compound of formula I, hydrochloride of the compound of formula I and L-camphor sulfonate of the compound of formula I (two dosages for each group, 3 and 9 mg/kg respectively based on the free compound of formula I).
Method: current injury carotid artery thrombosis method and platelet aggregation test.
Drug Administration: oral gavage.
Index observed: the drug was administrated for consecutive 3 days. 2 hours after the last administration, current injury carotid artery thrombosis method was carried out to observe the time of thrombosis formation. Femoral artery blood was sampled and separated to obtain the platelet. The effect on platelet aggregation was investigated with inducing agent ADP for each group, and at the same time, the bleeding time was determined.

Data set [4] in a line: Stability of the free compound in aqueous solution with weak acid or base. It is filed as physicochemical. Conditions: presence of weak acid or base in an aqueous solution for a period of time; produces degradation products.
The nature of data set [5]: Water solubility of the free compound (inventor's research). The class given is physicochemical.
Data set [6] is described as follows: Accelerated stability test of the sulfonates formulated into tablets or capsules. It is filed as physicochemical. Conditions: tablets or capsules with excipients, 50° C.±2° C., relative humid of 75% ±5%, end of the third month, TLC, stable = no occurrence of impurity. How it is done: A solid active ingredient with excellent stability is necessary for a solid formulation. To screen a suitable salt with chemical stability, the sulfonates prepared above was formulated into tablets or capsules with powdered excipients. The tablets included microcrystalline cellulose and anhydrous calcium dihydrogen phosphate with a ratio of 1:1. The capsules included Mannitol and Corn starch with a ratio of 4:1. And then, the tablets and the capsules were placed at the temperature of 50° C.±2° C. (incubator with constant temperature and humidity) with relative humid of 75% ±5% (saturated sodium chloride solution) for accelerated test. Sampling at the end of the third month, the tablets and the capsules were crushed and extracted with methanol:chloroform (1:1), and TLC was used to check the stability of the product and the salt was deemed as stable with no occurrence of impurity.

The mark [7] stands for this setting: 3 mg/kg based on the free compound of formula I.
Where [8] appears, read: 9 mg/kg based on the free compound of formula I.

As a reminder, the Solubility is the concentration that dissolves in the medium under given conditions. In the case of `COC(=O)C(c1ccccc1Cl)N1CCc2sc(OC(=O)c3ccccc3OC(C)=O)cc2C1` (centres unmarked) [Benzenesulfonate], the Solubility in data set [1] (read-out: Solubility) turned out to be 2500 µg/mL.
As to `COC(=O)[C@H](c1ccccc1Cl)N1CCc2sccc2C1` [Clopidogrel, clopidogrel, reference compound], in the data set with wistar rat [2] (10 mg/kg), the Weight of thrombosis came out at 3.2 ± 0.5 mg. This compound also registered a Thrombosis formation time in the data set on wistar rat [3] (10 mg/kg) of 249.9 ± 58.0 s.
For `COC(=O)C(c1ccccc1Cl)N1CCc2sc(OC(=O)c3ccccc3OC(C)=O)cc2C1` (centres unmarked) [Free Base, methyl 2-(2-chlorophenyl)-2-(2-acetyl-salicylic acyloxy-4,5,6,7-tetrahydro-thieno[3,2-C]pyridine)-5-acetate], the Weight of thrombosis in the data set with wistar rat [2] (setting [7]) was 4.0 ± 0.6 mg; in the data set on wistar rat [2] (setting [8]) it was 3.0 ± 0.5#,& mg. For the same compound, in data set [4], the “Stability (in words)” value is “not stable enough”. The “Water solubility (in words)” value in data set [5] was “almost insoluable in water”. Besides, the figures for the Thrombosis formation time in the data set with wistar rat [3] (setting [7]) and with wistar rat [3] (setting [8]) were 165 ± 22.4 s and 261 ± 54.3#,& s, respectively.
For `COC(=O)C(c1ccccc1Cl)N1CCc2sc(OC(=O)c3ccccc3OC(C)=O)cc2C1` (centres unmarked) [Hydrobromide], the Solubility in data set [1] was determined as 500 µg/mL.
For `COC(=O)C(c1ccccc1Cl)N1CCc2sc(OC(=O)c3ccccc3OC(C)=O)cc2C1` (centres unmarked) [Hydrochloride], the values for the Weight of thrombosis in the data set with wistar rat [2] (setting [7]) and in the data set with wistar rat [2] (setting [8]) were 3.2 ± 0.7#,Y mg and 2.8 ± 0.5 mg, respectively. In addition, in data set [1], the Solubility is 20 µg/mL. In addition, the results for the Thrombosis formation time in the data set on wistar rat [3] (setting [7]) and in the data set with wistar rat [3] (setting [8]) were 210.4 ± 51.1 s and 319.6 ± 35.2#,H,&,Y s, respectively.
On to `COC(=O)C(c1ccccc1Cl)N1CCc2sc(OC(=O)c3ccccc3OC(C)=O)cc2C1` [L-camphor sulfonate], for which the Weight of thrombosis in the data set on wistar rat [2] (setting [7]) is listed as 3.0 ± 0.7#,Y mg; with wistar rat [2] (setting [8]), 2.5 ± 0.4 H,&,Y mg. In addition, the results for the Stability result in data set [6] and in data set [6] (listed as camphor sulfonate) were “Stable” and “the most stable one”, respectively. Besides, the Solubility in data set [1] was 4700 µg/mL. Further, the Thrombosis formation time in the data set on wistar rat [3] (setting [7]) is recorded as 250.4 ± 35.2 ,Y,* s; in the data set with wistar rat [3] (setting [8]) it was 360.2 ± 55.9#,H,&,Y,* s.
As for `COC(=O)C(c1ccccc1Cl)N1CCc2sc(OC(=O)c3ccccc3OC(C)=O)cc2C1` (centres unmarked) [Methanesulfonate], the Stability entry in data set [6] is given as “Stable”. Moreover, in data set [1], the Solubility came to 8200 µg/mL.
For `COC(=O)C(c1ccccc1Cl)N1CCc2sc(OC(=O)c3ccccc3OC(C)=O)cc2C1` (centres unmarked) [P-toluenesulfonate] the same measures were “Stable” and 1200 µg/mL.
